Patent US8987256B2, “Oxo-heterocyclic substituted carboxylic acid derivatives and the use thereof” (Bayer Intellectual Property GmbH, priority 2008, dated 2015)

Legend:
[1] = biological target: T1, recombinant guanylate cyclase reporter cell line (Rattus norvegicus, UniProt P20595); experiment: sGC-activating activity in the CHO reporter cell in vitro; assay type: cell-based
T1 construct: expressed in transfected cells; host or cells: CHO reporter cell line
T1 sequence (P20595 1-619): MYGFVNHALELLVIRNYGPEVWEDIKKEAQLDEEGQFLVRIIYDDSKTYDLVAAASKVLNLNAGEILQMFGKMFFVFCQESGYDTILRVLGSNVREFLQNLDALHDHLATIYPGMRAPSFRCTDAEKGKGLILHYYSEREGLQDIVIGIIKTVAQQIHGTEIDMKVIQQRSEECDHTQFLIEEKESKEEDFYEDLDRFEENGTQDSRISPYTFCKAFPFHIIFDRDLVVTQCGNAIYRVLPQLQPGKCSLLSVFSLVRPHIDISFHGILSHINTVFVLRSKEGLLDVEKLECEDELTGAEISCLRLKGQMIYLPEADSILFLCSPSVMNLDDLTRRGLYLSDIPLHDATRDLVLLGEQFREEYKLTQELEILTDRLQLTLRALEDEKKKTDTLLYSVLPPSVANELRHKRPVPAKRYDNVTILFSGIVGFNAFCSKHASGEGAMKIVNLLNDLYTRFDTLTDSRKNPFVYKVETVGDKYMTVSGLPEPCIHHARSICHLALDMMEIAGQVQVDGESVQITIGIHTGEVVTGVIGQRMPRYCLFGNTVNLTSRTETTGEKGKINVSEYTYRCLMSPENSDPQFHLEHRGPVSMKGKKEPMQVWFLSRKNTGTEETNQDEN
T1 sequence (P19686 1-690 partner): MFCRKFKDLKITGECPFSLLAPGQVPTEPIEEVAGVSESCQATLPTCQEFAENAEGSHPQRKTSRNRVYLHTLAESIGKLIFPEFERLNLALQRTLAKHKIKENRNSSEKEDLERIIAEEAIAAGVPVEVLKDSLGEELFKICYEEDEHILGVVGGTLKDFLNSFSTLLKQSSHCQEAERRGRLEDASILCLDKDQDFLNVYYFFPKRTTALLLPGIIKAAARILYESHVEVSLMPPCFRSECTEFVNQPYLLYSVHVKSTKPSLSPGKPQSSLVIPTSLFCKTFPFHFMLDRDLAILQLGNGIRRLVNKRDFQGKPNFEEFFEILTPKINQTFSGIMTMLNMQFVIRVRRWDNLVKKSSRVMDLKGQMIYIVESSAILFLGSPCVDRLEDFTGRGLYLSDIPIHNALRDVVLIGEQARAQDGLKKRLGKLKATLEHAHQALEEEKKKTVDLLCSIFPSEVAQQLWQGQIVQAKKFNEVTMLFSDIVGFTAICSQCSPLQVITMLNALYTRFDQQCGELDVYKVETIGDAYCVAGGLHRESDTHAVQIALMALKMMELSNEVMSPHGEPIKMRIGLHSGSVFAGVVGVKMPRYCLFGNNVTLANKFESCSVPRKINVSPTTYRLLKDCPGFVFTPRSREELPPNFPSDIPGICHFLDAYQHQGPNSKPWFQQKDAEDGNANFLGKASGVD
Protocol: The cellular action of the compounds according to the invention is determined at a recombinant guanylate cyclase reporter cell line, as described in F. Wunder et al., Anal. Biochem. 339, 104-112 (2005).

[2] = biological target: T2, soluble guanylate cyclase (sGC) (Rattus norvegicus, UniProt P20595); experiment: Activating action at the sGC enzyme in vitro (PPi detection, luciferase); assay type: biochemical; conditions: for EC50: read-out: EC50 (concentration at 50% of maximum efficacy), activating action at the sGC enzyme
T2 construct: made in house; host or cells: baculovirus/Sf9 insect cells
T2 sequence (P20595 1-619): T1 sequence (P20595 1-619)
T2 sequence (P19686 1-690 partner): T1 sequence (P19686 1-690 partner)
Protocol: Soluble guanylate cyclase (sGC) converts on stimulation GTP into cGMP and pyrophosphate (PPi). PPi is detected with the aid of the assay described below. The signal produced in the assay increases as the reaction progresses and serves as a measure of the sGC enzyme activity under the given stimulation.
To carry out the assay, 29 μl of enzyme solution [0-10 nM soluble guanylate cyclase (prepared according to Honicka et al., J. Mol. Med. 77, 14-23 (1999)) in 50 mM TEA, 2 mM MgCl2, 0.1% BSA (fraction V), 0.005% Brij®, pH 7.5] are initially introduced into a microplate, and 1 μl of the substance to be tested (as a serially diluted solution in DMSO) is added. The mixture is incubated at room temperature for 10 min. Then 20 μl of detection mix [1.2 nM Firefly Luciferase (Photinus pyralis luciferase, Promega), 29 μM dehydroluciferin (prepared according to Bitler & McElroy, Arch. Biochem. Biophys. 72, 358 (1957)), 122 μM luciferin (Promega), 153 μM ATP (Sigma) and 0.4 mM DTT (Sigma) in 50 mM TEA, 2 mM MgCl2, 0.1% BSA (fraction V), 0.005% Brij®, pH 7.5] are added. The enzyme reaction is started by adding 20 μl of substrate solution [1.25 mM guanosine 5′-triphosphate (Sigma) in 50 mM TEA, 2 mM MgCl2, 0.1% BSA (fraction V), 0.005% Brij®, pH 7.5] and measured continuously in a luminometer. The extent of the stimulation by the substance to be tested can be determined relative to the signal of the unstimulated reaction.
The activation of heme-free guanylate cyclase is examined by addition of 25 μM of 1H-1,2,4-oxadiazolo[4,3-a]quinoxalin-1-one (ODQ) to the enzyme solution and subsequent incubation for 30 minutes and compared to the stimulation of the native enzyme.

MEC (minimum effective concentration), sGC-activating activity in the CHO reporter cell [1] [nM] | MEC (minimum effective concentration), activating action at the sGC enzyme [2] [nM] | EC50 [2] [nM] | Compound
30 | 3.4 | 35 | CC(CC(F)(F)F)C(C(=O)Nc1cccc(CC2(C(=O)O)CC2)c1)c1ccc(CN2N=C(c3ccccc3)OCC2=O)cc1 (single isomer, unassigned) [Example 160, 1-{3-[(5,5,5-trifluoro-3-methyl-2-{4-[(5-oxo-2-phenyl-5,6-dihydro-4H-1,3,4-oxadiazin-4-yl)methyl]phenyl}-pentanoyl)amino]benzyl}cyclopropanecarboxylic acid]
0.7 | 1.4 | 69 | CC(C(C(=O)Nc1cccc(CC2(C(=O)O)CC2)c1)c1ccc(Cn2nc(C(F)(F)F)ccc2=O)cc1)C(F)(F)F (single isomer, unassigned) [Example 181, 1-(3-{[4,4,4-trifluoro-3-methyl-2-(4-{[6-oxo-3-(trifluoromethyl)pyridazin-1(6H)-yl]methyl}-phenyl)-butanoyl]amino}benzyl)cyclopropanecarboxylic acid]
3 | 1.2 | 17 | O=C(Nc1cccc(CC2(C(=O)O)CC2)c1)C(c1ccc(CN2N=C(c3ccccc3)OCC2=O)cc1)C1CCC(F)(F)C1 (single isomer, unassigned) [Example 241, 1-(3-{[(3,3-Difluorocyclopentyl) {4-[(5-oxo-2-phenyl-5,6-dihydro-4H-1,3,4-oxadiazin-4-yl)-methyl]phenyl}acetyl]amino}benzyl)cyclopropanecarboxylic acid]
3 | 1 | 11 | CCC(C(C(=O)Nc1cccc(CC2(C(=O)O)CC2)c1)c1ccc(CN2N=C(c3ccccc3)OCC2=O)cc1)C(F)(F)F (stereo not drawn) [Example 170, 1-(3-{[2-{4-[(5-oxo-2-phenyl-5,6-dihydro-4H-1,3,4-oxadiazin-4-yl)methyl]phenyl}-3-(trifluoromethyl)-pentanoyl]amino}benzyl)cyclopropanecarboxylic acid]
30 | 3.7 | 59 | Cc1ccc(=O)n(Cc2ccc(C(C(=O)Nc3cccc(CC4(C(=O)O)CC4)c3)C3CCCC3)cc2)n1 (stereo not drawn) [Example 171, 1-{3-[(cyclopentyl{4-[(3-methyl-6-oxopyridazin-1(6H)-yl)methyl]phenyl}acetyl)amino]benzyl}-cyclopropanecarboxylic acid]
30 | 10 | 320 | O=C(Nc1cccc(CC2(C(=O)O)CC2)c1)C(c1ccc(Cn2ccc(C(F)(F)F)cc2=O)cc1)C1CCCC1 (stereo not drawn) [Example 176, 1-(3-{[cyclopentyl(4-{[2-oxo-4-(trifluoromethyl)-pyridin-1(2H)-yl]methyl}phenyl)acetyl]amino}-benzyl)cyclopropanecarboxylic acid]
3 | 7 | 240 | CC(C(C(=O)Nc1cccc(CCC(=O)O)c1Cl)c1ccc(CN2N=C(c3ccccc3)OCC2=O)cc1)C(F)(F)F (stereo not drawn) [Example 184, 3-{2-chloro-3-[(4,4,4-trifluoro-3-methyl-2-{4-[(5-oxo-2-phenyl-5,6-dihydro-4H-1,3,4-oxadiazin-4-yl)methyl]-phenyl}butanoyl)amino]phenyl}propanoic acid]
3 | 0.5 | 11 | C[C@H]([C@H](C(=O)Nc1cccc(CC2(C(=O)O)CC2)c1)c1ccc(CN2Cc3ccccc3C2=O)cc1)C(F)(F)F [Example 207]
3 | 1.2 | 24 | O=C(Nc1cccc(CC2(C(=O)O)CC2)c1)C(c1ccc(CN2Cc3c(F)cccc3C2=O)cc1)C1CCCC1 (stereo not drawn) [Example 213]
0.2 | 0.2 | 3.6 | C[C@H]([C@H](C(=O)Nc1cccc(CC2(C(=O)O)CC2)c1)c1ccc(CN2Cc3c(F)cccc3C2=O)cc1)C(F)(F)F [Example 219]
0.3 | 2 | 75 | C[C@@H]([C@@H](C(=O)Nc1cccc(CC2(C(=O)O)CC2)c1)c1ccc(CN2Cc3c(F)cccc3C2=O)cc1)C(F)(F)F [Example 220]
30 | 8.1 | 420 | O=C(O)CCc1cc(F)cc(NC(=O)C(c2ccc(CN3N=C(c4ccccc4)OCC3=O)cc2)C2CCCC2)c1 (stereo not drawn) [Example 230]
0.2 | 0.4 | 5.2 | O=C(Nc1cc(CC2(C(=O)O)CC2)ccc1F)C(c1ccc(CN2N=C(c3ccccc3)OCC2=O)cc1)C1CCCC1 (stereo not drawn) [Example 231]
20 | 93 | 1100 | O=C(O)CCc1cc(NC(=O)C(c2ccc(CN3N=C(c4ccccc4)OCC3=O)cc2)C2CCCC2)ccc1F (stereo not drawn) [Example 232]
0.3 | 3.3 | 78 | O=C(Nc1cccc(CC2(C(=O)O)CC2)c1F)C(c1ccc(CN2N=C(c3ccccc3)OCC2=O)cc1)C1CCCC1 (stereo not drawn) [Example 233]
1 | 4.1 | 220 | O=C(Nc1ccc(F)c(CC2(C(=O)O)CC2)c1)C(c1ccc(CN2N=C(c3ccccc3)OCC2=O)cc1)C1CCCC1 (stereo not drawn) [Example 234]
